ChEMBL document CHEMBL1201862, “PubChem BioAssay data set” (2004)
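Where inhibition never reached the appropriate level, the endpoint shown equals the highest concentration tested. Otherwise, values were interpolated linearly from a five-concentration, 48-hour dose response in 96-well plates. GI50: concentration for 50% inhibition of growth.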 Calls of active or inactive are those of the source. Rule as the data show it: active = GI50 up to about 1.1 µM and inactive = higher.

What was measured:
Experiment in all cases: NCI tumour cell line growth inhibition, 48 h
[1] = system: CCRF-CEM
[2] = system: COLO 205
[3] = system: DU-145
[4] = system: HL-60
[5] = system: Hs-578T
[6] = system: IGROV-1
[7] = system: KM12
[8] = system: LOX IMVI
[9] = system: MDA-MB-231
[10] = system: MDA-MB-435
[11] = system: NCI-H226
[12] = system: OVCAR-3
[13] = system: OVCAR-5
[14] = system: OVCAR-8
[15] = system: RXF 393
[16] = system: SK-OV-3
[17] = system: SNB-75
[18] = system: T47D
[19] = system: Malme-3M
[20] = system: TK-10

| SMILES | GI50 [1] | GI50 [2] | GI50 [3] | GI50 [4] | GI50 [5] | GI50 [6] | GI50 [7] | GI50 [8] | GI50 [9] | GI50 [10] | GI50 [11] | GI50 [12] | GI50 [13] | GI50 [14] | GI50 [15] | GI50 [16] | GI50 [17] | GI50 [18] | GI50 [19] | GI50 [20] |
| --- | --- | --- | --- | --- | --- | --- | --- | --- | --- | --- | --- | --- | --- | --- | --- | --- | --- | --- | --- | --- |
| CCOc1cc2c(cc1O)CC[C@@H]1[C@@H]2CC[C@]2(C)[C@@H](O)CC[C@@H]12 | 0.0274 µM (active) | 12.7 µM (inactive) | 0.0547 µM (active) | 0.014 µM (active) | 0.0306 µM (active) | 1.18 µM (inactive) | 1.22 µM (inactive) | 0.0179 µM (active) | 0.188 µM (active) | 0.0112 µM (active) | 0.423 µM (active) | 0.0184 µM (active) | 10.8 µM (inactive) | 0.109 µM (active) | 0.0387 µM (active) | 0.138 µM (active) | 0.0168 µM (active) |  |  |  |
| Cc1cc2c(C)cc(=O)[nH]c2cc1N | > 100 µM (inactive) | 60.1 µM (inactive) | > 100 µM (inactive) |  |  | > 100 µM (inactive) | > 100 µM (inactive) | > 100 µM (inactive) | 46.9 µM (inactive) | > 100 µM (inactive) | > 100 µM (inactive) | > 100 µM (inactive) | > 100 µM (inactive) | > 100 µM (inactive) | > 100 µM (inactive) |  | 84.3 µM (inactive) | > 100 µM (inactive) |  |  |
| C=C(C)C#CC(O)(C(=O)OC1CCN(C)CC1)C(C)C (centres undefined) | > 100 µM (inactive) | > 100 µM (inactive) | > 100 µM (inactive) | > 100 µM (inactive) |  | > 100 µM (inactive) | > 100 µM (inactive) | > 100 µM (inactive) | > 100 µM (inactive) | > 100 µM (inactive) | > 100 µM (inactive) | > 100 µM (inactive) | > 100 µM (inactive) | > 100 µM (inactive) | > 100 µM (inactive) | > 100 µM (inactive) | > 100 µM (inactive) | > 100 µM (inactive) | > 100 µM (inactive) | > 100 µM (inactive) |
| O=C1c2cccc3cc([N+](=O)[O-])cc(c23)C(=O)N1CCCN1CCN(CCCNc2ccc3ncn4c5ccccc5c(=O)c2c34)CC1 | < 0.005 µM (active) | < 0.005 µM (active) | < 0.005 µM (active) | < 0.005 µM (active) | < 0.005 µM (active) | < 0.005 µM (active) | < 0.005 µM (active) | < 0.005 µM (active) | < 0.005 µM (active) | < 0.005 µM (active) | < 0.005 µM (active) | 0.0358 µM (active) | 0.00867 µM (active) | < 0.005 µM (active) | < 0.005 µM (active) | 0.0198 µM (active) | < 0.005 µM (active) |  | < 0.005 µM (active) | < 0.005 µM (active) |
| O=C1CC[C@@]23CC(=O)O[C@@H]2CCCC3C1 (some centres undefined) | > 100 µM (inactive) | > 100 µM (inactive) | > 100 µM (inactive) | > 100 µM (inactive) | > 100 µM (inactive) | > 100 µM (inactive) | > 100 µM (inactive) | > 100 µM (inactive) | > 100 µM (inactive) |  | > 100 µM (inactive) |  | > 100 µM (inactive) | > 100 µM (inactive) | 18.5 µM (inactive) | > 100 µM (inactive) | > 100 µM (inactive) | > 100 µM (inactive) | > 100 µM (inactive) | > 100 µM (inactive) |
| O=C(O)C1=C(C(=O)O)Oc2ccccc2O1 | > 100 µM (inactive) | > 100 µM (inactive) |  | > 100 µM (inactive) |  | > 100 µM (inactive) | > 100 µM (inactive) | > 100 µM (inactive) |  |  | > 100 µM (inactive) | > 100 µM (inactive) | > 100 µM (inactive) | > 100 µM (inactive) | > 100 µM (inactive) | > 100 µM (inactive) | > 100 µM (inactive) |  | > 100 µM (inactive) | > 100 µM (inactive) |
| C=C(Cl)C(Cl)(CCl)CCC(Br)C(C)(C)Br (centres undefined) | > 10 µM (inactive) | > 10 µM (inactive) | > 10 µM (inactive) | > 10 µM (inactive) |  | > 10 µM (inactive) | > 10 µM (inactive) |  | > 10 µM (inactive) | > 10 µM (inactive) | > 10 µM (inactive) | > 10 µM (inactive) | > 10 µM (inactive) | > 10 µM (inactive) | > 10 µM (inactive) | > 10 µM (inactive) | > 10 µM (inactive) | > 10 µM (inactive) |  | > 10 µM (inactive) |
| O=C(/C=C/c1ccc2ccccc2c1)NCc1ccc(C(=O)NCCc2ccccc2)cc1 | > 100 µM (inactive) | > 100 µM (inactive) | > 100 µM (inactive) | 43.7 µM (inactive) |  |  | > 100 µM (inactive) | > 100 µM (inactive) | > 100 µM (inactive) | > 100 µM (inactive) | 43.5 µM (inactive) | > 100 µM (inactive) | > 100 µM (inactive) | > 100 µM (inactive) | > 100 µM (inactive) | > 100 µM (inactive) | 41.5 µM (inactive) | 65.5 µM (inactive) |  |  |
| CN(C)CCN(C)CCC(=O)/C=C/c1ccccc1 | 3.48 µM (inactive) | 18.7 µM (inactive) |  | 16.4 µM (inactive) |  | > 47.9 µM (inactive) | 20.5 µM (inactive) | 12.6 µM (inactive) |  |  | > 48.1 µM (inactive) | 27.7 µM (inactive) | > 60.1 µM (inactive) | 21.2 µM (inactive) | 21.3 µM (inactive) | > 100 µM (inactive) | > 41.5 µM (inactive) |  | 18.4 µM (inactive) | 25.9 µM (inactive) |
| CCN(C(=O)N[C@@H](CC(C)C)C(=O)NCC(=O)OC)c1ccccc1 | > 100 µM (inactive) | > 100 µM (inactive) | > 100 µM (inactive) |  |  | > 100 µM (inactive) | > 100 µM (inactive) | 44.3 µM (inactive) | > 100 µM (inactive) | > 100 µM (inactive) | > 100 µM (inactive) | > 100 µM (inactive) | > 100 µM (inactive) | > 100 µM (inactive) | 54 µM (inactive) | > 100 µM (inactive) | 72.9 µM (inactive) | > 100 µM (inactive) | 18 µM (inactive) | > 100 µM (inactive) |
| O=S(=O)(O)c1c(Cl)cc(O)c2ncccc12 | > 100 µM (inactive) | > 100 µM (inactive) | > 100 µM (inactive) |  |  | > 100 µM (inactive) | > 100 µM (inactive) | > 100 µM (inactive) | > 100 µM (inactive) | > 100 µM (inactive) | > 100 µM (inactive) | > 100 µM (inactive) | > 100 µM (inactive) | > 100 µM (inactive) | > 100 µM (inactive) |  | > 100 µM (inactive) | > 100 µM (inactive) |  |  |
| COc1ccc(-c2nc(N(C)C)c3ccccc3n2)cc1 |  | 10.1 µM (inactive) |  | 12.4 µM (inactive) | 13.5 µM (inactive) | 9.55 µM (inactive) | 13.4 µM (inactive) | 11 µM (inactive) | 28.4 µM (inactive) | 15.3 µM (inactive) | 3.31 µM (inactive) |  | 14 µM (inactive) | 11.3 µM (inactive) | 9.29 µM (inactive) | 15.8 µM (inactive) | 13.5 µM (inactive) | 10.8 µM (inactive) | 16.8 µM (inactive) | 18.3 µM (inactive) |
| Oc1cccc(-c2cc(=S)ss2)c1 |  | 18.4 µM (inactive) |  | 15 µM (inactive) | 16.3 µM (inactive) | 14.4 µM (inactive) | 18.6 µM (inactive) | 14.8 µM (inactive) | 14.3 µM (inactive) | 20.5 µM (inactive) | 18 µM (inactive) |  | 15.9 µM (inactive) | 17.7 µM (inactive) | 18 µM (inactive) | 20 µM (inactive) |  |  | 17.6 µM (inactive) | 18.5 µM (inactive) |
| COC(=O)C(=O)C(C(=O)C(=O)Nc1ccccc1OC)c1nc2ccc([N+](=O)[O-])cc2nc1O (centres undefined) | > 100 µM (inactive) |  |  | > 100 µM (inactive) | 78.2 µM (inactive) | 54.8 µM (inactive) | 54.3 µM (inactive) | 96.2 µM (inactive) | > 100 µM (inactive) | 35.6 µM (inactive) | > 100 µM (inactive) | > 100 µM (inactive) | > 100 µM (inactive) | > 100 µM (inactive) | > 100 µM (inactive) | > 100 µM (inactive) | > 100 µM (inactive) | > 100 µM (inactive) | 83 µM (inactive) | > 100 µM (inactive) |
| CN(C)c1ccc(/C=C/c2ccc(/C=C/c3ccc(N(C)C)cc3)cc2)cc1 | > 100 µM (inactive) | > 100 µM (inactive) |  | > 100 µM (inactive) |  | > 100 µM (inactive) | > 100 µM (inactive) | > 100 µM (inactive) |  |  | 81.8 µM (inactive) | > 100 µM (inactive) | > 100 µM (inactive) | > 100 µM (inactive) | > 100 µM (inactive) | > 100 µM (inactive) | > 100 µM (inactive) |  | 13 µM (inactive) | > 100 µM (inactive) |
| CC(=O)OC(C)(C)[C@@H]1CC[C@]2(C)/C=C/[C@H](C)C[C@@H](O)C3=C(C)C[C@@H](O3)C12 (some centres undefined) | > 100 µM (inactive) | > 100 µM (inactive) |  | > 100 µM (inactive) |  | > 100 µM (inactive) | > 100 µM (inactive) | > 100 µM (inactive) |  |  | 49.1 µM (inactive) | > 100 µM (inactive) | > 100 µM (inactive) | > 100 µM (inactive) | 94.6 µM (inactive) | > 100 µM (inactive) | > 100 µM (inactive) |  | > 100 µM (inactive) | > 100 µM (inactive) |
